The record followed here is US6696447B2, “Hydroxyphenyl-piperazinyl-methyl-benzamide derivatives for the treatment of pain” (AstraZeneca AB, priority 2000, dated 2004).

Format in all cases: biochemical
Experiment [1] deals with T1, human δ receptor (HDELTA) (Homo sapiens, UniProt P41143).
T1 construct: expressed in transfected cells; host or cells: human 293S (HEK-293S) cells, geneticin-selected
Nature of the experiment: GTP[γ]35S binding functional assay, HEK-293S membranes expressing cloned human opioid receptor (HDELTA). The procedure:
A. Human 293S cells expressing cloned human μ, δ, and κ receptors and neomycin resistance were grown in suspension at 37° C. and 5% CO2 in shaker flasks containing calcium-free DMEM10% FBS, 5% BCS, 0.1% Pluronic F-68, and 600 μg/ml geneticin.
Cells were pelleted and resuspended in lysis buffer (50 mM Tris, pH 7.0, 2.5 mM EDTA, with PMSF added just prior to use to 0.1 mM from a 0.1 M stock in ethanol), incubated on ice for 15 min, then homogenized with a polytron for 30 sec. The suspension was spun at 1000 g (max) for 10 min at 4° C. The supernatant was saved on ice and the pellets resuspended and spun as before. The supernatants from both spins were combined and spun at 46,000 g(max) for 30 min. The pellets were resuspended in cold Tris buffer (50 mM Tris/Ci, pH 7.0) and spun again. The final pellets were resuspended in membrane buffer (50 mM Tris, 0.32 M sucrose, pH 7.0). Aliquots (1 ml) in polypropylene tubes were frozen in dry ice/ethanol and stored at −70° C. until use. The protein concentrations were determined by a modified Lowry assay with sodium dodecyl sulfate.
(§1) The agonist activity of the compounds is measured by determining the degree to which the compounds receptor complex activates the binding of GTP to G-proteins to which the receptors are coupled. In the GTP binding assay, GTP[γ]^35S is combined with test compounds and membranes from HEK-293S cells expressing the cloned human opioid receptors or from homogenised rat and mouse brain. Agonists stimulate GTP[γ]^35 S binding in these membranes. The EC50 and Emax values of compounds are determined from dose-response curves. Right shifts of the dose response curve by the delta antagonist naltrindole are performed to verify that agonist activity is mediated through delta receptors.
On the technique in general: GTPγS is a poorly hydrolysed GTP analogue; its binding reports G protein activation.

The target of experiment [2] is T2, delta receptors, rat brain membranes (Rattus norvegicus, UniProt P33533).
T2 construct: from tissue; host or cells: rat brain homogenate
T2 sequence (P33533 whole entry): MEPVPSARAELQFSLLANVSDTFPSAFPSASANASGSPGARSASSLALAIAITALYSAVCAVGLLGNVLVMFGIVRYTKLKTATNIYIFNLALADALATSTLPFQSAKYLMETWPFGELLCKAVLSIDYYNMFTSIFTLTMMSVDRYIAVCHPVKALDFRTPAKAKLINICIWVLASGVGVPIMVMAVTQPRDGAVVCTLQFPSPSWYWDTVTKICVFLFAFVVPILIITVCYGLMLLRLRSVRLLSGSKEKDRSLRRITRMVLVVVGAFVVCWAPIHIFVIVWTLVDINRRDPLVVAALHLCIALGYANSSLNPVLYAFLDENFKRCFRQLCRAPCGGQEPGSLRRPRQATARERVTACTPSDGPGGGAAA
Nature of the experiment: GTP[γ]35S binding functional assay, homogenised rat brain. The procedure:
(§2) B. Mouse and rat brains were weighed and rinsed in ice-cold PBS (containing 2.5 mM EDTA, pH 7.4). The brains were homogenized with a polytron for 15 sec (mouse) or 30 sec (rat) in ice-cold lysis buffer (50 mM Tris, pH 7.0, 2.5 mM EDTA, with phenylmethylsulfonyl fluoride added just prior use to […] from a 0.5M stock in DMSO:ethanol).
as §1

In experiment [3] the target is T3, delta receptors, mouse brain membranes (Mus musculus, UniProt P32300).
T3 construct: from tissue; host or cells: mouse brain homogenate
T3 sequence (P32300 whole entry): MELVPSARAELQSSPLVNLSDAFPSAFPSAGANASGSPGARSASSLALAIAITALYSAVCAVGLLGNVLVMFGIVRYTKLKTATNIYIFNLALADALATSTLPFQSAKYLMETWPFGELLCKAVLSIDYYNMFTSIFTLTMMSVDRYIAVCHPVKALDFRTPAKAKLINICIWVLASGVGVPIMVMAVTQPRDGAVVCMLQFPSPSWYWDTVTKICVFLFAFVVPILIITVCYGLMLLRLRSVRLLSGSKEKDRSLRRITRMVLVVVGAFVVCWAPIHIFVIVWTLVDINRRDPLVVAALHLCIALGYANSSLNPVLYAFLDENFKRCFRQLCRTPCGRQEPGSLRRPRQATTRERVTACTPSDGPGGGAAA
Nature of the experiment: GTP[γ]35S binding functional assay, homogenised mouse brain. How it is done: as §2, §1

Structures are written as SMILES.

The Emax is the greatest response seen or fitted, relative to the assay's reference.

T1 sequence (P41143 whole entry): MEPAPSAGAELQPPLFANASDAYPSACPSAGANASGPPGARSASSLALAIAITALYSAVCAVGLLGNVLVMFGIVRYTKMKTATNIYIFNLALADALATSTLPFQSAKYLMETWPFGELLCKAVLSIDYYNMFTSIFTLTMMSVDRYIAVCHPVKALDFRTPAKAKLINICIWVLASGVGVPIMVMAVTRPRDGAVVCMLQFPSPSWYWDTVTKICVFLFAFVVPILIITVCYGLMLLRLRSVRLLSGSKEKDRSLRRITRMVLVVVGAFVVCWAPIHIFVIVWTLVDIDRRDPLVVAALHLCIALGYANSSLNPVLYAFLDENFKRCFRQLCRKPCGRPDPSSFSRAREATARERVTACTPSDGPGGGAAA

With `CCN(CC)C(=O)c1ccc(C(c2cccc(O)c2)N2CCN(Cc3cccs3)CC2)cc1` (stereo not drawn) [Example 2, N,N-diethyl-4-{(3-hydroxyphenyl)[4-(2-thienylmethyl)-1-piperazinyl]methyl}benzamide], the figures for the Emax in experiment [1], in experiment [2] and in experiment [3] were 105%, 120% and 118%, respectively.

As to `CCN(CC)C(=O)c1ccc(C(c2cccc(O)c2)N2CCN(Cc3ccsc3)CC2)cc1` (stereo not drawn) [Example 3, N,N-diethyl-4-{(3-hydroxyphenyl)[4-(3-thienylmethyl)-1-piperazinyl]methyl}benzamide], the figures for the Emax in experiment [1], in experiment [2] and in experiment [3] were 114%, 128% and 122%, respectively.

Regarding `CCN(CC)C(=O)c1ccc(C(c2cccc(O)c2)N2CCN(Cc3ccco3)CC2)cc1` (stereo not drawn) [Example 1, N,N-diethyl-4-[[4-(2-furylmethyl)-1-piperazinyl](3-hydroxyphenyl)methyl]benzamide], the Emax in experiment [1] was found to be 94.8%; in experiment [2] it was 130%; in experiment [3] it was 113%.
